Calls of active or inactive are those of the source. How the calls were made is not given here.
Legend:
[1] = target: Ferrochelatase, mitochondrial (Homo sapiens) (UniProt P22830); conditions: at 10 µM
Description: (§1) Compound was evaluated for the inhibition of human FECH at 10uM

[2] = target: Porphobilinogen deaminase (Homo sapiens) (UniProt P08397); conditions: at 100 µM
Description: (§2) Compound was evaluated for the inhibition of human HMBS at 100uM

[3] = target: T1, Ferrochelatase, mitochondrial (Homo sapiens) (UniProt P22830); conditions: at 10 µM; remark: listed apart in the source
T1 sequence (whole entry): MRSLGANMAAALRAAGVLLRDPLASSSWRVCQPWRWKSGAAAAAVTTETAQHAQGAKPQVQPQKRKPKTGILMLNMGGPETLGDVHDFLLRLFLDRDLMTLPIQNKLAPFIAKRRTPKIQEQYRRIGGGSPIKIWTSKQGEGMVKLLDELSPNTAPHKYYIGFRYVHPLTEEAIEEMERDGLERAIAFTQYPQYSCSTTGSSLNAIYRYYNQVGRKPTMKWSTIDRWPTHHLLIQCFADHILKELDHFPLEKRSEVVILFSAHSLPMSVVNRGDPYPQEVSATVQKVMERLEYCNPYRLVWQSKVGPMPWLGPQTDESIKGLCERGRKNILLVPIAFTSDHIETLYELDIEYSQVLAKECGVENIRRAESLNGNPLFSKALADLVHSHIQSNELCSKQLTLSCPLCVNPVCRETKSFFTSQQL
Description: as §1

[4] = target: T2, Porphobilinogen deaminase (Homo sapiens) (UniProt P08397); conditions: at 100 µM; remark: listed apart in the source
T2 sequence (whole entry): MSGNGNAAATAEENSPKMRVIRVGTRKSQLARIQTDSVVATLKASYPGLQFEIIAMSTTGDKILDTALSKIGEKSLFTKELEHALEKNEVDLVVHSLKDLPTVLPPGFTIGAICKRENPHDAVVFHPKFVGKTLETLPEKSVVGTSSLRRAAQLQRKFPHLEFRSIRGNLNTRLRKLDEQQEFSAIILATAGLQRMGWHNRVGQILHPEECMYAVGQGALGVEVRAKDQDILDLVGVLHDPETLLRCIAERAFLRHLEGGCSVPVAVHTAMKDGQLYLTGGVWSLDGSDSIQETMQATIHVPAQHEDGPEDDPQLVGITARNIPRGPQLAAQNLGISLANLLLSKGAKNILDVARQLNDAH
Description: as §2

## MMV688978
[1]
  inhibition: inactive
[2]
  inhibition: inactive

## CC(c1cc(Cl)cc(Cl)c1)N(C)c1ncc2c(N)nc(N)nc2n1 (centres undefined)
[3]
  inhibition: inactive
[4]
  inhibition: inactive

## CCOC(=O)c1cc(-c2csc(Nc3c(C)cc(C)cc3C)n2)on1
[3]
  inhibition: inactive
[4]
  inhibition: inactive

## Cc1nn(C)cc1C(C)Nc1nncc(-c2ccc(C(F)(F)F)cc2)n1 (centres undefined)
[3]
  inhibition: inactive
[4]
  inhibition: inactive

## Cc1cc(Nc2ccc(C(F)(F)F)cc2)n2ccnc2n1
[3]
  inhibition: inactive
[4]
  inhibition: inactive

## Cc1cc(C2=NOC(c3cc(Cl)c(F)c(Cl)c3)(C(F)(F)F)C2)ccc1C(=O)NCc1ccc2c(c1)C(C)(C)OB2O (centres undefined)
[3]
  inhibition: inactive
[4]
  inhibition: inactive

## COc1cc(C2=NCCN2)cc2cc(-c3ccc(C4=NCCN4)cc3)oc12
[3]
  inhibition: inactive
[4]
  inhibition: inactive

## CC(C)(C(=O)Nc1ccc(F)cc1)n1cc(-c2ccccc2F)cn1
[3]
  inhibition: inactive
[4]
  inhibition: inactive

## Cc1ccc2nc(Cl)c(CNCc3cccs3)cc2c1
[3]
  inhibition: inactive
[4]
  inhibition: inactive

## O=C(NC1CCCCC1)N1CCN(Cc2ccc3c(c2)OCO3)CC1
[3]
  inhibition: inactive
[4]
  inhibition: inactive

## c1cncc(NCc2ccc(-c3cc4ccncc4cc3OC3CCNCC3)s2)c1
[3]
  inhibition: inactive
[4]
  inhibition: inactive

## COc1ccc2nc(C)cc(OCC(=O)Nc3ccccc3OC)c2c1
[3]
  inhibition: inactive
[4]
  inhibition: inactive

## CC(C)(C)C(O)C(Oc1ccc(-c2ccccc2)cc1)n1cncn1 (centres undefined)
[3]
  inhibition: inactive
[4]
  inhibition: inactive

## Nc1ncnc2c1c(-c1cnc3ccccc3c1)nn2CC1CCNCC1
[3]
  inhibition: inactive
[4]
  inhibition: inactive

## CC(=O)Oc1ccccc1C(=O)Nc1ncc([N+](=O)[O-])s1
[3]
  inhibition: inactive
[4]
  inhibition: inactive

## O=C(COc1cccc(F)c1)Nc1nc(-c2ccccn2)cs1
[3]
  inhibition: inactive
[4]
  inhibition: inactive

## Cc1[nH]c2cc(F)cc(F)c2c(=O)c1-c1ccc(Oc2ccc(OC(F)(F)F)cc2)cc1
[3]
  inhibition: inactive
[4]
  inhibition: inactive

## CN1CCCN(C(c2ccccc2)c2ccc(Cl)cc2)CC1 (centres undefined)
[3]
  inhibition: inactive
[4]
  inhibition: inactive

## c1ccc(Oc2ccc(-c3cc(CN4CCOCC4)[nH]n3)cc2)cc1
[3]
  inhibition: inactive
[4]
  inhibition: inactive

## COc1ccc(C2=NCCN2)cc1-c1cn(-c2cccc(C3=NCCN3)c2)nn1
[3]
  inhibition: inactive
[4]
  inhibition: inactive

## O=C(C(Cc1c[nH]c2ccccc12)NS(=O)(=O)c1ccc(Cl)cc1)N1CCCCC1 (centres undefined)
[3]
  inhibition: inactive
[4]
  inhibition: inactive

## CNC(=O)C1Cc2c([nH]c3cc(Cl)ccc23)C2(CCN(CCc3ccccc3)CC2)N1 (centres undefined)
[3]
  inhibition: inactive
[4]
  inhibition: inactive

## N=C(N)c1ccc(-c2cc(-c3ccccc3)on2)cc1
[3]
  inhibition: inactive
[4]
  inhibition: inactive

## CC(C)C(Oc1cccc2ccccc12)C(=O)O (centres undefined)
[3]
  inhibition: inactive
[4]
  inhibition: inactive

## c1ccc(Oc2ccc(-c3cc(C4CCOCC4)[nH]n3)cc2)cc1
[3]
  inhibition: inactive
[4]
  inhibition: inactive

## N=C(N)Nc1ccc(-c2ccc(-c3ccc(N=C(N)N)c(Cl)c3)o2)cc1Cl
[3]
  inhibition: inactive
[4]
  inhibition: inactive

## COc1cc(NC(=O)Cc2nn(C)c(=O)c3ccccc23)ccc1Cl
[3]
  inhibition: inactive
[4]
  inhibition: inactive
